Assay results: patent US9513294B2, “Megastokes amino-triazolyl-BODIPY compounds and applications to live neuron staining and human serum albumin FA1 drug site probing” (National University of Singapore, priority 2012, dated 2016)

Test: Absorbance and fluorescence emission spectra (SpectraMax M2)
Format: physicochemical
Conditions: BDC library, Table 2
Description: BDC-8 (Blue): absorbance λmax=473 nm, emission λmax=585 nm; MK101-8 (Green): absorbance λmax=474 nm, emission λmax=563 nm; MKHA374-48 (Yellow): absorbance λmax=468 nm, λem=557 nm. The corresponding spectra of a reported BODIPY (BD-27; Red) are also included for comparison: absorbance λmax=551 nm, emission λmax=568 nm. The structures of BDC-8, MK101-8, MKHA374-48 and BD-27 are also depicted.
(§1) ^1H-NMR, ^19F-NMR and ^13C-NMR spectra were recorded on Bruker ACF300 (300 MHz), DPX300 (300 MHz) and AMX500 (500 MHz) spectrometers. High resolution mass spectra (ESI) were obtained on a Finnigan/MAT 95XL-T spectrometer. Spectroscopic and quantum yield data were measured on a SpectraMax M2 spectrophotometer (Molecular Devices). Data analysis was performed using GraphPrism 5.0. Analytical characterization was performed on a HPLC-MS (Agilent-1200 series) with a DAD detector and a single quadrupole mass spectrometer (6130 series) with an ESI probe. Analytical HPLC method: eluents, A: H2O (0.1% HCOOH), B: CH3CN (0.1% HCOOH), gradient 5% B to 95% B (10 min). Reverse-phase Phenomenex C18 Luna column (4.6×50 mm^2, 3.5 […]), flow rate: 1 mL/min.

In order of rising “λmax Absorp.” value:
1. CN(Cc1ccccc1)Cc1cn(-c2ccc3n2[B-](F)(F)[N+]2=C(N4CCCCC4)C=CC2=C3c2ccc(N)cc2)nn1 [BDC-18]  471 nm
2. COc1ccc2cc(-c3cn(-c4ccc5n4[B-](F)(F)[N+]4=C(N6CCCCC6)C=CC4=C5c4ccc(N)cc4)nn3)ccc2c1 [BDC-22]  472 nm
3. Nc1ccc(C2=C3C=CC(N4CCCCC4)=[N+]3[B-](F)(F)n3c2ccc3-n2cc(-c3ccc(-c4ccccc4)cc3)nn2)cc1 [BDC-23]  472 nm
4. Nc1ccc(C2=C3C=CC(N4CCCCC4)=[N+]3[B-](F)(F)n3c2ccc3-n2cc(-c3ccc(F)cc3F)nn2)cc1 [BDC-26]  473 nm
5. Nc1ccc(C2=C3C=CC(N4CCCCC4)=[N+]3[B-](F)(F)n3c2ccc3-n2cc(COc3ccccc3)nn2)cc1 [BDC-17]  474 nm
6. Nc1ccc(C2=C3C=CC(N4CCCCC4)=[N+]3[B-](F)(F)n3c2ccc3-n2cc(CCc3ccccc3)nn2)cc1 [BDC-19]  476 nm

In order of rising “λmax Emission” value:
1. Nc1ccc(C2=C3C=CC(N4CCCCC4)=[N+]3[B-](F)(F)n3c2ccc3-n2cc(-c3ccc(-c4ccccc4)cc3)nn2)cc1 [BDC-23]  570 nm
2. COc1ccc2cc(-c3cn(-c4ccc5n4[B-](F)(F)[N+]4=C(N6CCCCC6)C=CC4=C5c4ccc(N)cc4)nn3)ccc2c1 [BDC-22]  579 nm
3. CN(Cc1ccccc1)Cc1cn(-c2ccc3n2[B-](F)(F)[N+]2=C(N4CCCCC4)C=CC2=C3c2ccc(N)cc2)nn1 [BDC-18]  580 nm
4. Nc1ccc(C2=C3C=CC(N4CCCCC4)=[N+]3[B-](F)(F)n3c2ccc3-n2cc(-c3ccc(F)cc3F)nn2)cc1 [BDC-26]  585 nm
5. Nc1ccc(C2=C3C=CC(N4CCCCC4)=[N+]3[B-](F)(F)n3c2ccc3-n2cc(COc3ccccc3)nn2)cc1 [BDC-17]  591 nm
6. Nc1ccc(C2=C3C=CC(N4CCCCC4)=[N+]3[B-](F)(F)n3c2ccc3-n2cc(CCc3ccccc3)nn2)cc1 [BDC-19]  594 nm

Same assay, conditions: BDCAC library, Table 3

In the case of `CCCCCC(O)c1cn(-c2ccc3n2[B-](F)(F)[N+]2=C(N4CCCCC4)C=CC2=C3c2ccc(NC(C)=O)cc2)nn1` (racemic) [BDCAC-69], the “λmax Absorp.” value is reported as 468 nm.

For `CCCCCC(O)c1cn(-c2ccc3n2[B-](F)(F)[N+]2=C(N4CCCCC4)C=CC2=C3c2ccc(NC(C)=O)cc2)nn1` (racemic) [BDCAC-69], the “λmax Emission” value was 587 nm.

Same assay, conditions: BDCCA library, Table 4

In order of falling “λmax Absorp.” value:
1. CCCC(C)c1cn(-c2ccc3n2[B-](F)(F)[N+]2=C(N4CCCCC4)C=CC2=C3c2ccc(NC(=O)CCl)cc2)nn1 (racemic) [BDCCA-3]  467 nm
2. CCCCCC(O)c1cn(-c2ccc3n2[B-](F)(F)[N+]2=C(N4CCCCC4)C=CC2=C3c2ccc(NC(=O)CCl)cc2)nn1 (racemic) [BDCCA-69]  467 nm

In order of falling “λmax Emission” value:
1. CCCC(C)c1cn(-c2ccc3n2[B-](F)(F)[N+]2=C(N4CCCCC4)C=CC2=C3c2ccc(NC(=O)CCl)cc2)nn1 (racemic) [BDCCA-3]  587 nm
2. CCCCCC(O)c1cn(-c2ccc3n2[B-](F)(F)[N+]2=C(N4CCCCC4)C=CC2=C3c2ccc(NC(=O)CCl)cc2)nn1 (racemic) [BDCCA-69]  587 nm

Same assay, conditions: MKAC compound library; absorbance maximum

In order of falling “λmax Abs. (nm)” value:
1. CCCCCC(O)c1cn(-c2ccc3n2[B-](F)(F)[N+]2=C(N(C)Cc4ccccc4)C=CC2=C3c2ccc(NC(C)=O)cc2)nn1 (racemic) [MKAC195-69]  467 nm
2. CCCC(C)c1cn(-c2ccc3n2[B-](F)(F)[N+]2=C(NCc4cc(OC)ccc4OC)C=CC2=C3c2ccc(NC(C)=O)cc2)nn1 (racemic) [MKAC181-3]  465 nm
3. CCCCCC(O)c1cn(-c2ccc3n2[B-](F)(F)[N+]2=C(NCc4cc(OC)ccc4OC)C=CC2=C3c2ccc(NC(C)=O)cc2)nn1 (racemic) [MKAC181-69]  465 nm
4. CCCC(C)c1cn(-c2ccc3n2[B-](F)(F)[N+]2=C(N(C)Cc4ccccc4)C=CC2=C3c2ccc(NC(C)=O)cc2)nn1 (racemic) [MKAC195-3]  465 nm
5. CCCCCC(O)c1cn(-c2ccc3n2[B-](F)(F)[N+]2=C(N4CCCC4)C=CC2=C3c2ccc(NC(C)=O)cc2)nn1 (racemic) [MKAC215-69]  462 nm
6. CCCC(C)c1cn(-c2ccc3n2[B-](F)(F)[N+]2=C(N4CCCC4)C=CC2=C3c2ccc(NC(C)=O)cc2)nn1 (racemic) [MKAC215-3]  461 nm

Same assay, conditions: MKAC compound library; fluorescence emission maximum

In order of rising “λmax Em. (nm)” value:
1. CCCCCC(O)c1cn(-c2ccc3n2[B-](F)(F)[N+]2=C(N(C)Cc4ccccc4)C=CC2=C3c2ccc(NC(C)=O)cc2)nn1 (racemic) [MKAC195-69]  560 nm
2. CCCCCC(O)c1cn(-c2ccc3n2[B-](F)(F)[N+]2=C(NCc4cc(OC)ccc4OC)C=CC2=C3c2ccc(NC(C)=O)cc2)nn1 (racemic) [MKAC181-69]  561 nm
3. CCCC(C)c1cn(-c2ccc3n2[B-](F)(F)[N+]2=C(NCc4cc(OC)ccc4OC)C=CC2=C3c2ccc(NC(C)=O)cc2)nn1 (racemic) [MKAC181-3]  562 nm
4. CCCCCC(O)c1cn(-c2ccc3n2[B-](F)(F)[N+]2=C(N4CCCC4)C=CC2=C3c2ccc(NC(C)=O)cc2)nn1 (racemic) [MKAC215-69]  566 nm
5. CCCC(C)c1cn(-c2ccc3n2[B-](F)(F)[N+]2=C(N4CCCC4)C=CC2=C3c2ccc(NC(C)=O)cc2)nn1 (racemic) [MKAC215-3]  569 nm
6. CCCC(C)c1cn(-c2ccc3n2[B-](F)(F)[N+]2=C(N(C)Cc4ccccc4)C=CC2=C3c2ccc(NC(C)=O)cc2)nn1 (racemic) [MKAC195-3]  574 nm

Same assay, conditions: MKCA compound library; absorbance maximum

In the case of `CCCC(C)c1cn(-c2ccc3n2[B-](F)(F)[N+]2=C(NCc4cc(OC)ccc4OC)C=CC2=C3c2ccc(NC(=O)CCl)cc2)nn1` (centres unmarked) [MKCA181-3], the “λmax Absorp. (nm)” value is reported as 465 nm.

Same assay, conditions: MKCA compound library; fluorescence emission maximum

With `CCCC(C)c1cn(-c2ccc3n2[B-](F)(F)[N+]2=C(NCc4cc(OC)ccc4OC)C=CC2=C3c2ccc(NC(=O)CCl)cc2)nn1` (centres unmarked) [MKCA181-3] the “λmax Emission (nm)” value was 564 nm.

Test: Quantum yield measurements versus Acridine Yellow in EtOH
Format: physicochemical
Conditions: BDC library, Table 2; excitation 460 nm
Description: as §1
Quantum yields were calculated by measuring the integrated emission area of the fluorescent spectra and comparing to the area measured for Acridine Yellow in EtOH when excited at 460 nm (Φfluorescence^AcridineYellow=0.47). Quantum yields for the amino-triazolyl-BODIPYs were calculated using the equation below, where F represents the area of fluorescent emission, η is the refractive index of the solvent, and Abs is absorbance at the excitation wavelength selected for standards and samples. Emission was integrated between 510 and 700 nm.

In order of falling “φ (quantum yield)” value:
1. COc1ccc2cc(-c3cn(-c4ccc5n4[B-](F)(F)[N+]4=C(N6CCCCC6)C=CC4=C5c4ccc(N)cc4)nn3)ccc2c1 [BDC-22]  0.28%
2. Nc1ccc(C2=C3C=CC(N4CCCCC4)=[N+]3[B-](F)(F)n3c2ccc3-n2cc(-c3ccc(-c4ccccc4)cc3)nn2)cc1 [BDC-23]  0.20%
3. CN(Cc1ccccc1)Cc1cn(-c2ccc3n2[B-](F)(F)[N+]2=C(N4CCCCC4)C=CC2=C3c2ccc(N)cc2)nn1 [BDC-18]  0.18%
4. Nc1ccc(C2=C3C=CC(N4CCCCC4)=[N+]3[B-](F)(F)n3c2ccc3-n2cc(-c3ccc(F)cc3F)nn2)cc1 [BDC-26]  0.12%
5. Nc1ccc(C2=C3C=CC(N4CCCCC4)=[N+]3[B-](F)(F)n3c2ccc3-n2cc(COc3ccccc3)nn2)cc1 [BDC-17]  0.11%
6. Nc1ccc(C2=C3C=CC(N4CCCCC4)=[N+]3[B-](F)(F)n3c2ccc3-n2cc(CCc3ccccc3)nn2)cc1 [BDC-19]  0.08%

Same assay, conditions: BDCAC library, Table 3; excitation 460 nm

For `CCCCCC(O)c1cn(-c2ccc3n2[B-](F)(F)[N+]2=C(N4CCCCC4)C=CC2=C3c2ccc(NC(C)=O)cc2)nn1` (racemic) [BDCAC-69], the “φ (quantum yield)” value was 0.8%.

Same assay, conditions: BDCCA library, Table 4; excitation 460 nm

In order of rising “φ (quantum yield)” value:
1. CCCCCC(O)c1cn(-c2ccc3n2[B-](F)(F)[N+]2=C(N4CCCCC4)C=CC2=C3c2ccc(NC(=O)CCl)cc2)nn1 (racemic) [BDCCA-69]  0.7%
2. CCCC(C)c1cn(-c2ccc3n2[B-](F)(F)[N+]2=C(N4CCCCC4)C=CC2=C3c2ccc(NC(=O)CCl)cc2)nn1 (racemic) [BDCCA-3]  0.9%

Same assay, conditions: MKAC compound library; quantum yield

In order of falling “φ (%)” value:
1. CCCCCC(O)c1cn(-c2ccc3n2[B-](F)(F)[N+]2=C(NCc4cc(OC)ccc4OC)C=CC2=C3c2ccc(NC(C)=O)cc2)nn1 (racemic) [MKAC181-69]  16.50%
2. CCCC(C)c1cn(-c2ccc3n2[B-](F)(F)[N+]2=C(NCc4cc(OC)ccc4OC)C=CC2=C3c2ccc(NC(C)=O)cc2)nn1 (racemic) [MKAC181-3]  15.41%
3. CCCC(C)c1cn(-c2ccc3n2[B-](F)(F)[N+]2=C(N(C)Cc4ccccc4)C=CC2=C3c2ccc(NC(C)=O)cc2)nn1 (racemic) [MKAC195-3]  6.53%
4. CCCC(C)c1cn(-c2ccc3n2[B-](F)(F)[N+]2=C(N4CCCC4)C=CC2=C3c2ccc(NC(C)=O)cc2)nn1 (racemic) [MKAC215-3]  3.81%
5. CCCCCC(O)c1cn(-c2ccc3n2[B-](F)(F)[N+]2=C(N(C)Cc4ccccc4)C=CC2=C3c2ccc(NC(C)=O)cc2)nn1 (racemic) [MKAC195-69]  3.467%
6. CCCCCC(O)c1cn(-c2ccc3n2[B-](F)(F)[N+]2=C(N4CCCC4)C=CC2=C3c2ccc(NC(C)=O)cc2)nn1 (racemic) [MKAC215-69]  2.00%
